Laboratory results from PubChem BioAssay (NCI).
Several values for one entry are separate records, joined by “and”; a condition that tells them apart may be missing. Equal values may be shown once.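 Dose response: 5 concentrations. Exposure: 48 h. Format: 96-well plates. Endpoint: linear interpolation; highest concentration if not reached. GI50 marks 50% less growth. The concentration for full growth arrest is given as TGI.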

Experiments:
Assay in all cases: NCI anticancer screen, dose series, 48 h
NCI-H460 lung = system: NCI-H460 lung
KM12 colon = system: KM12 colon
NCI-H23 lung = system: NCI-H23 lung
UO-31 renal = system: UO-31 renal
COLO 205 colon = system: COLO 205 colon
RPMI-8226 leukemia = system: RPMI-8226 leukemia
SK-OV-3 ovarian = system: SK-OV-3 ovarian
K-562 leukemia = system: K-562 leukemia
OVCAR-5 ovarian = system: OVCAR-5 ovarian
MDA-MB-435 = system: MDA-MB-435

## CSCS(=O)C[C@H](CO)NC(=O)/C=C/c1c(C)[nH]c(=O)[nH]c1=O (some centres undefined)
NCI-H460 lung
  GI50: 1.19 µM
  TGI: > 27.6 µM and 7.55 µM
KM12 colon
  GI50: 1.95 µM
  TGI: 7.6 µM and 3.98 µM
NCI-H23 lung
  GI50: 1.84 µM
  TGI: 4.95 µM and 2.47 µM
UO-31 renal
  GI50: 2.97 µM
  TGI: 10.2 µM and 4.26 µM
COLO 205 colon
  GI50: 3.16 µM
RPMI-8226 leukemia
  TGI: 6.71 µM
SK-OV-3 ovarian
  TGI: 6.11 µM and 6.96 µM
K-562 leukemia
  GI50: 1.72 µM
  TGI: 8.83 µM and 5.01 µM
OVCAR-5 ovarian
  GI50: 2.7 µM
  TGI: 9.91 µM and 7.24 µM

## O=C(Nc1cccc2c1C(=O)c1c(NC(=O)c3ccccc3)ccc(Nc3cccc4c3C(=O)c3ccccc3C4=O)c1C2=O)c1ccccc1
NCI-H460 lung
  TGI: > 100 µM
KM12 colon
  TGI: > 100 µM
UO-31 renal
  TGI: > 100 µM
COLO 205 colon
  TGI: > 100 µM
RPMI-8226 leukemia
  TGI: > 100 µM
SK-OV-3 ovarian
  TGI: > 100 µM
K-562 leukemia
  TGI: > 100 µM

## COC(=O)c1ccccc1N(C(=O)c1ccccc1)c1ccccc1C
NCI-H460 lung
  TGI: > 100 µM
KM12 colon
  TGI: > 100 µM
NCI-H23 lung
  TGI: 79.3 µM
UO-31 renal
  TGI: > 100 µM
COLO 205 colon
  TGI: 54.5 µM
SK-OV-3 ovarian
  TGI: 69.1 µM
K-562 leukemia
  TGI: > 100 µM
OVCAR-5 ovarian
  TGI: > 100 µM

## C=C(CO)CC(O)c1cc(OC)ccc1OC (centres undefined)
NCI-H460 lung
  TGI: > 100 µM
KM12 colon
  TGI: > 100 µM
UO-31 renal
  TGI: > 100 µM
COLO 205 colon
  TGI: > 100 µM
RPMI-8226 leukemia
  TGI: > 100 µM
SK-OV-3 ovarian
  TGI: > 100 µM
K-562 leukemia
  TGI: > 100 µM
OVCAR-5 ovarian
  TGI: > 100 µM

## CCCCCOCC(O)CO (centres undefined)
NCI-H460 lung
  TGI: > 100 µM
KM12 colon
  TGI: > 100 µM
NCI-H23 lung
  TGI: > 100 µM
COLO 205 colon
  TGI: > 100 µM
OVCAR-5 ovarian
  TGI: > 100 µM

## Cc1ccc2oc(=O)cc(/C(=C3/C=CC=N3)c3ccc[nH]3)c2c1
NCI-H460 lung
  GI50: 0.353 µM
  TGI: 3.52 µM
MDA-MB-435
  GI50: 0.211 µM
  TGI: 0.544 µM
KM12 colon
  GI50: 0.344 µM
  TGI: 1.71 µM
NCI-H23 lung
  GI50: 0.484 µM
  TGI: 3.66 µM
UO-31 renal
  GI50: 0.45 µM
  TGI: 5.11 µM
COLO 205 colon
  GI50: 1.49 µM
  TGI: 3.49 µM
RPMI-8226 leukemia
  GI50: 0.297 µM
  TGI: 1.16 µM
SK-OV-3 ovarian
  GI50: 0.264 µM
  TGI: 0.815 µM
OVCAR-5 ovarian
  GI50: 0.901 µM
  TGI: 12.7 µM

## O=C(O)C[C@@H](Cl)[C@H](NC(=O)OCc1ccccc1)C(=O)O
NCI-H460 lung
  TGI: > 100 µM
KM12 colon
  TGI: > 100 µM
NCI-H23 lung
  TGI: > 100 µM
UO-31 renal
  TGI: > 100 µM
COLO 205 colon
  TGI: > 100 µM
RPMI-8226 leukemia
  TGI: > 100 µM
SK-OV-3 ovarian
  TGI: > 100 µM
K-562 leukemia
  TGI: > 100 µM
OVCAR-5 ovarian
  TGI: > 100 µM

## CC(C)C12Cc3c(ccc4ccccc34)OC1(C)Oc1ccc3ccccc3c1C2 (centres undefined)
NCI-H460 lung
  TGI: > 100 µM
KM12 colon
  TGI: > 100 µM
NCI-H23 lung
  TGI: > 100 µM
UO-31 renal
  TGI: > 100 µM
COLO 205 colon
  TGI: > 100 µM
SK-OV-3 ovarian
  TGI: > 100 µM
K-562 leukemia
  TGI: > 100 µM
OVCAR-5 ovarian
  TGI: > 100 µM

## O=C1CSC(=S)N1c1ccco1
NCI-H460 lung
  TGI: > 100 µM
MDA-MB-435
  TGI: 75.6 µM
KM12 colon
  TGI: 52.6 µM
NCI-H23 lung
  TGI: > 100 µM
COLO 205 colon
  TGI: > 100 µM
RPMI-8226 leukemia
  TGI: > 100 µM
SK-OV-3 ovarian
  TGI: > 100 µM
K-562 leukemia
  TGI: > 100 µM
OVCAR-5 ovarian
  TGI: > 100 µM

## CCC(=O)N1C(=O)OCC1C(C)C (centres undefined)
NCI-H460 lung
  TGI: > 100 µM
KM12 colon
  TGI: > 100 µM
NCI-H23 lung
  TGI: > 100 µM
UO-31 renal
  TGI: > 100 µM
COLO 205 colon
  TGI: > 100 µM
RPMI-8226 leukemia
  TGI: > 100 µM
SK-OV-3 ovarian
  TGI: > 100 µM
K-562 leukemia
  TGI: > 100 µM
OVCAR-5 ovarian
  TGI: > 100 µM

## CC(C)N(O)C(=N)c1ccccc1
NCI-H460 lung
  TGI: > 100 µM
KM12 colon
  TGI: > 100 µM
NCI-H23 lung
  TGI: > 100 µM
UO-31 renal
  TGI: > 100 µM
OVCAR-5 ovarian
  TGI: > 100 µM

## CC(=O)Nc1cc2cc(N)ccc2oc1=O
NCI-H460 lung
  TGI: > 100 µM
MDA-MB-435
  TGI: > 100 µM
KM12 colon
  TGI: > 100 µM
NCI-H23 lung
  TGI: > 100 µM
UO-31 renal
  TGI: > 100 µM
COLO 205 colon
  TGI: > 100 µM
RPMI-8226 leukemia
  TGI: > 100 µM
K-562 leukemia
  TGI: > 100 µM
OVCAR-5 ovarian
  TGI: > 100 µM

## CCCCCCCCCCCCCCCC1=NCCN1
MDA-MB-435
  GI50: 1.7 µM
  TGI: 3.26 µM
KM12 colon
  GI50: 1.83 µM
  TGI: 3.45 µM
NCI-H23 lung
  GI50: 2.04 µM
  TGI: 4.78 µM
UO-31 renal
  GI50: 1.65 µM
  TGI: 3.47 µM
COLO 205 colon
  GI50: 1.86 µM
  TGI: 3.66 µM
SK-OV-3 ovarian
  GI50: 2.23 µM
  TGI: 4.85 µM
OVCAR-5 ovarian
  GI50: 2.26 µM
  TGI: 5.53 µM

## Nc1c(C(=O)Nc2ccccc2)sc2nc3c(cc12)CCCCC3
NCI-H460 lung
  GI50: 0.46 µM
  TGI: > 100 µM
MDA-MB-435
  GI50: 0.205 µM
  TGI: 0.522 µM
KM12 colon
  GI50: 0.52 µM
  TGI: > 100 µM
NCI-H23 lung
  GI50: 0.874 µM
  TGI: 97.3 µM
UO-31 renal
  GI50: 0.917 µM
  TGI: > 100 µM
RPMI-8226 leukemia
  GI50: 0.372 µM
  TGI: 14.3 µM
SK-OV-3 ovarian
  GI50: 0.633 µM
  TGI: 10.8 µM
OVCAR-5 ovarian
  GI50: 1.06 µM
  TGI: > 100 µM

## N.N.N.N.N.NC(=O)[O-].[Co+3].[I-]
NCI-H460 lung
  GI50: > 100 µM
  TGI: > 100 µM
KM12 colon
  GI50: > 100 µM
  TGI: > 100 µM
NCI-H23 lung
  GI50: > 100 µM
  TGI: > 100 µM
UO-31 renal
  GI50: > 100 µM
  TGI: > 100 µM
COLO 205 colon
  GI50: > 100 µM
  TGI: > 100 µM
RPMI-8226 leukemia
  GI50: > 100 µM
  TGI: > 100 µM
SK-OV-3 ovarian
  GI50: > 100 µM
  TGI: > 100 µM
K-562 leukemia
  GI50: > 100 µM
  TGI: > 100 µM
OVCAR-5 ovarian
  GI50: > 100 µM
  TGI: > 100 µM

## CO[C@@H]1C=C[C@@]23c4cc5c(cc4CN(C[C@@H]2O)[C@H]3C1)OCO5
NCI-H460 lung
  TGI: > 100 µM
KM12 colon
  TGI: > 100 µM
NCI-H23 lung
  TGI: > 100 µM
UO-31 renal
  TGI: 62.2 µM
RPMI-8226 leukemia
  TGI: > 100 µM
SK-OV-3 ovarian
  TGI: > 100 µM
K-562 leukemia
  TGI: > 100 µM
OVCAR-5 ovarian
  TGI: > 100 µM

## CN1CN(C2OC(CO)C(O)C2O)c2nc(N)[nH]c(=O)c21 (centres undefined)
NCI-H460 lung
  TGI: > 100 µM
KM12 colon
  TGI: > 100 µM
NCI-H23 lung
  TGI: > 100 µM
UO-31 renal
  TGI: > 100 µM
COLO 205 colon
  TGI: > 100 µM
RPMI-8226 leukemia
  TGI: > 100 µM
SK-OV-3 ovarian
  TGI: > 100 µM
K-562 leukemia
  TGI: > 100 µM
OVCAR-5 ovarian
  TGI: > 100 µM

## CC(=O)OC1CCC2(C)C(CCC3C2CC(=O)C2(C)C3CC(N3CC3)C2C(C)=O)C1 (centres undefined)
NCI-H460 lung
  TGI: 33.9 µM
MDA-MB-435
  TGI: 51.5 µM
KM12 colon
  TGI: 43.4 µM
NCI-H23 lung
  TGI: 44.9 µM
UO-31 renal
  TGI: 46.4 µM
COLO 205 colon
  TGI: 35.7 µM
RPMI-8226 leukemia
  TGI: 83.6 µM
K-562 leukemia
  TGI: 89.7 µM
OVCAR-5 ovarian
  TGI: > 100 µM

## N#CC(C(=O)C(=O)Nc1ccccc1)c1ccccc1 (centres undefined)
KM12 colon
  TGI: > 100 µM
NCI-H23 lung
  TGI: > 100 µM
UO-31 renal
  TGI: > 100 µM
RPMI-8226 leukemia
  TGI: > 100 µM
SK-OV-3 ovarian
  TGI: > 100 µM
K-562 leukemia
  TGI: > 100 µM

## COC(OC)c1cc2c(cc1C=O)OCO2
NCI-H460 lung
  TGI: > 100 µM
KM12 colon
  TGI: > 100 µM
NCI-H23 lung
  TGI: > 100 µM
UO-31 renal
  TGI: > 100 µM
SK-OV-3 ovarian
  TGI: > 100 µM
K-562 leukemia
  TGI: > 100 µM
OVCAR-5 ovarian
  TGI: > 100 µM

## NCCc1ccc(S(=O)(=O)F)cc1
NCI-H460 lung
  GI50: 62.3 µM
  TGI: > 100 µM
MDA-MB-435
  GI50: 65.1 µM
  TGI: > 100 µM
KM12 colon
  GI50: > 100 µM
  TGI: > 100 µM
NCI-H23 lung
  GI50: > 100 µM
  TGI: > 100 µM
UO-31 renal
  GI50: > 100 µM
  TGI: > 100 µM
COLO 205 colon
  GI50: > 100 µM
  TGI: > 100 µM
SK-OV-3 ovarian
  GI50: > 100 µM
  TGI: > 100 µM
K-562 leukemia
  GI50: 80.7 µM
  TGI: > 100 µM
OVCAR-5 ovarian
  GI50: 43.4 µM
  TGI: > 100 µM

## O=c1c2ccc(S(=O)(=O)c3ccc4c(=O)n5c6ccccc6nc5c5cccc3c45)c3cccc(c32)c2nc3ccccc3n12
NCI-H460 lung
  TGI: > 100 µM
MDA-MB-435
  TGI: > 100 µM
KM12 colon
  TGI: > 100 µM
NCI-H23 lung
  TGI: > 100 µM
UO-31 renal
  TGI: > 100 µM
COLO 205 colon
  TGI: > 100 µM
RPMI-8226 leukemia
  TGI: > 100 µM
SK-OV-3 ovarian
  TGI: 31.6 µM
OVCAR-5 ovarian
  TGI: > 100 µM
